According to PMC8213153 (PLoS ONE, 2021):
Converted amounts (≈) assume the structure as drawn. Read-outs that look alike come from different tables or passages of the source.

Legend:
[1] = Cytotoxicity (MTT) assay of single and dual combinatory drugs; type: cell-based; conditions: human; for viability at 48 h, 0.2 μg/mL / viability at 48 h, 2 μg/mL / viability at 48 h, 10 μg/mL / viability at 48 h, 100 μg/mL / viability at 48 h, 400 μg/mL: read-out: Cell Viability (%)
Protocol: Each tablet containing drugs was triturated and mixed until homogenous. Approximately 50 mg equivalent mass of drugs were weighed and added to dimethyl sulfoxide in order to solubilize the drugs. The suspension was sonicated in a water bath for 15 minutes before being added to Rosewell Park Memorial Institute (RPMI) media, sonicated again and vortexed to mix it until homogenous. The suspension was then filtered through a polycarbonate membrane with a pore size of 0.45 μm and then a pore size of 0.22 μm under aseptic conditions. The filtrate was mixed with 10% foetal bovine serum and penicillin streptomycin before being vortexed to produce a homogenous mixture to be used as a stock solution. The samples were prepared by diluting the stock solution of each drug with RPMI complete media at an appropriate level of dilution to produce a determined concentration. The dual combinatory drugs mixtures were prepared by mixing appropriate amounts of two drug stock solutions in order to produce a final concentration at the required level. The combinatory drugs were evaluated at both constant and non-constant ratios to evaluate their effects on the cytotoxicity, including; antagonistic, synergistic, or additive. A constant ratio of the mixture was achieved by adding drug solutions at the same ratio, thereby increasing each drug concentration, to produce dose escalation. In contrast, at a non-constant ratio, a fixed determined concentration of drug was added to increased doses of other drug solution in order to produce different levels of drug concentration.
The cytotoxic concentration (CC50) of drugs was performed by means of MTT assay at the Stem Cell Research and Development Center, Universitas Airlangga using human umbilical cord mesenchymal stem cells which had been obtained from human placenta tissue as approved by the Ethical Committee of Universitas Airlangga Hospital (Certificate number 101/KEH/2019 dated January 10, 2019). The cells were prepared as the primary cell culture and used for the cytotoxicity assay because of their sensitivity to chemicals. Cells were seeded into 96-well microplates at a concentration of 1x10^3 cells/well in 100 μL Alpha Minimum Essentials Medium (α-MEM, Gibco, USA) supplemented with 10% foetal bovine serum, 1% penicillin-streptomycin and 1% amphotericin-B. The plates were then incubated in a CO2 incubator at 37°C with 5% CO2 for 24 hours, at which point, the supernatant was replaced with α-MEM containing drugs at each concentration and incubated for a further 48 hours. Approximately 25μL of 3-(4,5-Dimethylthiazol-2-yl)-2,5-diphenyl tetrazolium-bromide (MTT) reagent at a concentration of 5mg/mL was subsequently added to each well and incubated for four hours at 37°C with 5% CO2. Purple formazan crystals were formed and observed under an inverted microscope. Dimethyl sulfoxide was added to each well with the complete solubilisation of formazan crystals subsequently being observed. The greater the number of formazan crystals formed, the lower the toxicity of the samples which were read for optical density of formazan using a multi reader at a measurement wavelength of 595 nm (Promega Glomax, USA). The CC50 value was analyzed by CompuSyn software (the ComboSyn Inc., accessed from www.combosyn.com).
In this study, the cytotoxicity assay was evaluated for single and dual combinatory drugs during a period of 48 hours of drug incubation. This assay was intended to evaluate the toxicity of dual combinatory drugs on normal cells. The combination ratios were calculated taking into consideration the usual therapeutic doses and plasma peak concentrations of the drugs. To determine this cytotoxicity, the drugs were mixed at both constant and non-constant ratios.

[2] = tested on: SARS-CoV-2 virus; assay: microbe, parasite or virus in culture; type: cell-based; conditions: for Drug concentration that produced an undetected virus copy number: at 24, 48, and/or 72 hours' incubation; for IC50: Severe acute respiratory syndrome coronavirus 2, Vero
[3] = tested on: IL-10; assay: IL-10 level of virus-infected Vero cells (ELISA); type: cell-based
Protocol: (§1) To enable measurement of IL-6, IL-10 and TNF-α levels, the culture medium of the treated cells was collected in sterile micro-tubes and centrifuged at 3,500 rpm for 20 minutes. The supernatants were carefully collected and diluted with aquadest at a 1:5 volume ratio and vortexed until homogenous. The samples were deposited onto a well-plate, added to ELISA reagents (Bioassay Technology Laboratory, Shanghai, China), and incubated at 37°C for 60 minutes. Reagent substrate solution was then added to the well and incubated for ten minutes at 37°C. The samples were measured for antigen concentration using the optical density (OD) plotted into the standard curves of IL-6, IL-10, and TNF-α.

[4] = tested on: IL-6; assay: IL-6 level of virus-infected Vero cells (ELISA); type: cell-based
Protocol: as §1

[5] = tested on: TNF-α; assay: TNF-α level of virus-infected Vero cells (ELISA); type: cell-based
Protocol: as §1

[6] = cited from earlier work
[7] = FAVIPIRAVIR-AZITHROMYCIN series
[8] = HYDROXYCHLOROQUINE-FAVIPIRAVIR series

For `CC[C@H]1OC(=O)[C@H](C)[C@@H](O[C@H]2C[C@@](C)(OC)[C@@H](O)[C@H](C)O2)[C@H](C)[C@@H](O[C@@H]2O[C@H](C)C[C@H](N(C)C)[C@H]2O)[C@](C)(OC)C[C@@H](C)C(=O)[C@H](C)[C@@H](O)[C@]1(C)O` [CLA, Clarithromycin], the CC50 at 48 h ([1]; LOPIRITO-CLA experiment (Fig 5), 48 hours, CompuSyn, n = 3, read-out: CC50) was 2280 µg/mL, the viability at 48 h, 0.2 μg/mL ([1]; LOPIRITO-CLARITHROMYCIN series) was 134% and the viability at 48 h, 2 μg/mL ([1]; LOPIRITO-CLARITHROMYCIN series) was 92.6%. For the same compound, the viability at 48 h, 10 μg/mL ([1]; LOPIRITO-CLARITHROMYCIN series) was 79.4%, the viability at 48 h, 100 μg/mL ([1]; LOPIRITO-CLARITHROMYCIN series) was 92.6% and the viability at 48 h, 400 μg/mL ([1]; LOPIRITO-CLARITHROMYCIN series) was 74.3%. For the same compound, the “Virus Titer” value ([2]; 0.5 μg/mL, 24-h) was 38.47 viral protein fg/mL, the “Virus Titer” value ([2]; 8 μg/mL, 24-h) was 38.03 viral protein fg/mL and the “Virus Titer” value ([2]; 8 μg/mL, 48-h) was 39.09 viral protein fg/mL. The “Virus Titer” value ([2]; 8 μg/mL, 72-h) was 37.46 viral protein fg/mL, the “Drug concentration that produced an undetected virus copy number” value ([2]; MoI 0.04) was 8 µg/mL and the IC50 ([2]; 24h, MoI 0.04) was 4.6 µg/mL (≈ 6.15 µM). The IC50 ([2]; 48h, MoI 0.04) was 0.6 µg/mL (≈ 0.802 µM), the IC50 ([2]; 72h, MoI 0.04) was 0.9 µg/mL (≈ 1.2 µM) and the IL-10 ([3]; 0.5 μg/mL, 24-h) was 36.80 ± 1.13 pg/mL. It also gave an IL-10 ([3]; 0.5 μg/mL, 48-h) of 105.49 ± 1.32 pg/mL, an IL-10 ([3]; 0.5 μg/mL, 72-h) of 507.18 ± 0.00 pg/mL and an IL-10 ([3]; 4 μg/mL, 24-h) of 36.80 ± 0.08 pg/mL. It also gave an IL-10 ([3]; 4 μg/mL, 48-h) of 58.15 ± 1.41 pg/mL, an IL-10 ([3]; 4 μg/mL, 72-h) of 498.75 ± 0.00 pg/mL and an IL-10 ([3]; 8 μg/mL, 24-h) of 24.75 ± 0.58 pg/mL. For the same compound, the IL-10 ([3]; 8 μg/mL, 48-h) was 79.10 ± 0.00 pg/mL, the IL-10 ([3]; 8 μg/mL, 72-h) was 445.89 ± 0.07 pg/mL and the IL-10 ([3]; 8 μg/mL, 48h) was “↗↗ (8 μg/mL; 48h)”. For the same compound, the “IL-10 levels (in words)” value ([3]; Table 5) was “increased”, the IL-6 ([4]; 0.5 μg/mL, 24-h) was 15.61 ± 0.85 ng/L and the IL-6 ([4]; 0.5 μg/mL, 48-h) was 28.56 ± 0.62 ng/L. For the same compound, the IL-6 ([4]; 0.5 μg/mL, 72-h) was 48.22 ± 0.35 ng/L, the IL-6 ([4]; 4 μg/mL, 24-h) was 14.85 ± 0.51 ng/L and the IL-6 ([4]; 4 μg/mL, 48-h) was 30.07 ± 0.09 ng/L. The IL-6 ([4]; 4 μg/mL, 72-h) was 51.13 ± 0.94 ng/L, the IL-6 ([4]; 8 μg/mL, 24-h) was 15.61 ± 0.57 ng/L and the IL-6 ([4]; 8 μg/mL, 48-h) was 34.67 ± 0.50 ng/L. The IL-6 ([4]; 8 μg/mL, 72-h) was 64.93 ± 2.50 ng/L, the IL-6 ([4]; 1, 4, 8 μg/mL, 24, 48, 72h) was “↘↘ (1, 4, 8 μg/mL; 24, 48, 72h)” and the “IL-6 (in words)” value ([4]; Table 5) was “reduced”. The TNF-α ([5]; 0.5 μg/mL, 24-h) was 20.39 ± 0.57 pg/mL, the TNF-α ([5]; 0.5 μg/mL, 48-h) was 426.37 ± 1.40 pg/mL and the TNF-α ([5]; 0.5 μg/mL, 72-h) was 612.06 ± 1.54 pg/mL. The TNF-α ([5]; 4 μg/mL, 24-h) was 100.04 ± 1.44 pg/mL, the TNF-α ([5]; 4 μg/mL, 48-h) was 404.07 ± 0.10 pg/mL and the TNF-α ([5]; 4 μg/mL, 72-h) was 609.56 ± 0.14 pg/mL. The TNF-α ([5]; 8 μg/mL, 24-h) was 43.92 ± 1.13 pg/mL, the TNF-α ([5]; 8 μg/mL, 48-h) was 382.62 ± 0.86 pg/mL and the TNF-α ([5]; 8 μg/mL, 72-h) was 609.56 ± 0.14 pg/mL. The TNF-α ([5]; 24, 48, and 72 hours, cell without concentration) was “No effects”, the “TNF-α levels (in words)” value ([5]; Table 5) was “no effects” and the “Peak Plasma Concentration” value ([6]; oral 250 mg Clarithromycin twice a day) was 1 µg/mL. For the same compound, the “Peak Plasma Concentration” value ([6]; oral 500 mg Clarithromycin twice a day) was 2.41 µg/mL.

`NC(=O)c1nc(F)c[nH]c1=O` [FAVI, Favipiravir] gave a CC50 at 48 h ([1]; CC50) greater than 400 µg/mL, a viability at 48 h, 0.2 μg/mL [1, 7] of 105% and a viability at 48 h, 2 μg/mL [1, 7] of 104%. For the same compound, the viability at 48 h, 10 μg/mL [1, 7] was 109%, the viability at 48 h, 100 μg/mL [1, 7] was 110% and the viability at 48 h, 400 μg/mL [1, 7] was 126%. The viability at 48 h, 0.2 μg/mL [1, 8] was 92.5%, the viability at 48 h, 2 μg/mL [1, 8] was 71.9% and the viability at 48 h, 10 μg/mL [1, 8] was 72.4%. The viability at 48 h, 100 μg/mL [1, 8] was 66.2%, the viability at 48 h, 400 μg/mL [1, 8] was 66.8% and the “Virus Titer” value ([2]; 10 μg/mL, 48-h) was 37.37 viral protein fg/mL. For the same compound, the “Virus Titer” value ([2]; 15 μg/mL, 24-h) was 38.87 viral protein fg/mL, the “Drug concentration that produced an undetected virus copy number” value ([2]; MoI 0.04) was 37.5 µg/mL and the IC50 ([2]; 24h, MoI 0.04) was 9.6 µg/mL (≈ 61.1 µM). For the same compound, the IC50 ([2]; 48h, MoI 0.04) was 18.6 µg/mL (≈ 118 µM), the IC50 ([2]; 72h, MoI 0.04) was less than 10 µg/mL and the “Results (virus detection)” value ([2]; at the drug concentration of the same line of Table 4, MoI 0.04) was 24, 48, 72h virus still detected with decreasing number. For the same compound, the IL-10 ([3]; 10 μg/mL, 24-h) was 31.38 ± 1.80 pg/mL, the IL-10 ([3]; 10 μg/mL, 48-h) was 125.32 ± 1.57 pg/mL and the IL-10 ([3]; 10 μg/mL, 72-h) was 465.82 ± 0.57 pg/mL. It also gave an IL-10 ([3]; 15 μg/mL, 24-h) of 27.97 ± 0.29 pg/mL, an IL-10 ([3]; 15 μg/mL, 48-h) of 100.89 ± 1.28 pg/mL and an IL-10 ([3]; 15 μg/mL, 72-h) of 411.24 ± 0.24 pg/mL. For the same compound, the IL-10 ([3]; 10, 15 μg/mL, 48, 72h) was “↗↗ (10, 15 μg/mL; 48, 72h)”, the IL-6 ([4]; 10 μg/mL, 24-h) was 14.09 ± 1.53 ng/L and the IL-6 ([4]; 10 μg/mL, 48-h) was 37.28 ± 0.37 ng/L. The IL-6 ([4]; 10 μg/mL, 72-h) was 60.21 ± 0.49 ng/L, the IL-6 ([4]; 15 μg/mL, 24-h) was 22.18 ± 1.09 ng/L and the IL-6 ([4]; 15 μg/mL, 48-h) was 39.75 ± 1.67 ng/L. For the same compound, the IL-6 ([4]; 15 μg/mL, 72-h) was 68.61 ± 1.04 ng/L, the IL-6 ([4]; to 100 μg/mL, 48h) was “↘↘ (to 100 μg/mL; 48h)” and the TNF-α ([5]; 10 μg/mL, 24-h) was 3.09 ± 1.23 pg/mL. It also gave a TNF-α ([5]; 10 μg/mL, 48-h) of 416.51 ± 1.28 pg/mL, a TNF-α ([5]; 10 μg/mL, 72-h) of 711.37 ± 0.70 pg/mL and a TNF-α ([5]; 15 μg/mL, 24-h) of 98.18 ± 1.55 pg/mL. The TNF-α ([5]; 15 μg/mL, 48-h) was 467.47 ± 3.11 pg/mL, the TNF-α ([5]; 15 μg/mL, 72-h) was 725.48 ± 3.51 pg/mL and the TNF-α ([5]; 10 ppm, 24h) was “↘↘ (10 ppm; 24h)”.
